Publication PMC6017976, “Enzyme Kinetics and Molecular Docking Studies on Cytochrome 2B6, 2C19, 2E1, and 3A4 Activities by Sauchinone” (Molecules : A Journal of Synthetic Chemistry and Natural …, 2018)
Values joined by “and” are separate entries in the source; they are usually repeats but may differ in a detail not shown here. Equal values may be shown once.

Experiments:
CYP2C19 [1] = biological target: T1, CYP2C19 (Homo sapiens, UniProt P33261); assay: Reversible inhibition (RI) of CYP2C19 activity in HLMs (cocktail probe assay); assay type: in vitro ADME; conditions: S-mephenytoin hydroxylation, 100 μM S-mephenytoin, 30 min incubation
T1 construct: pooled human liver microsomes from a mixed pool of 50 donors; tissue BD Gentest Co. 452156; host or cells: human liver microsomes, pool of 50 donors
T1 sequence (P33261 whole entry): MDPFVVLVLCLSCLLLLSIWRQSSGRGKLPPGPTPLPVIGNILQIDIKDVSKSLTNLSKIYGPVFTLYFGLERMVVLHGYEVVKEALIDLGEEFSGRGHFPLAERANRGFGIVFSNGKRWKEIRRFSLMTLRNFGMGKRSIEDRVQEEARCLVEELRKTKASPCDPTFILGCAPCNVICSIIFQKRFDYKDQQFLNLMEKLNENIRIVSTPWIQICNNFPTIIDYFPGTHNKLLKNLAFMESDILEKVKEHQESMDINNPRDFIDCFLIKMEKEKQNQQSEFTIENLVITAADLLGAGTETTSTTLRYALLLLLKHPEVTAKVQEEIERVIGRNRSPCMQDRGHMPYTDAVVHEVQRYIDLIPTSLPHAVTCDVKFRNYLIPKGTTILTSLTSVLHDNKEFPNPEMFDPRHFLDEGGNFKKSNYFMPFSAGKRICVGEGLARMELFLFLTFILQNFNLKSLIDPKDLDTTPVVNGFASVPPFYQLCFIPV

CYP2E1 [2] = biological target: T2, CYP2E1 (Homo sapiens, UniProt P05181); assay: Time-dependent inhibition (TDI) IC50 shift assay on CYP2E1 in HLMs; assay type: in vitro ADME; conditions: for IC50: HLMs, 10 min incubation
T2 construct: pooled human liver microsomes from a mixed pool of 50 donors; tissue BD Gentest Co. 452156; host or cells: human liver microsomes, pool of 50 donors
T2 sequence (P05181 whole entry): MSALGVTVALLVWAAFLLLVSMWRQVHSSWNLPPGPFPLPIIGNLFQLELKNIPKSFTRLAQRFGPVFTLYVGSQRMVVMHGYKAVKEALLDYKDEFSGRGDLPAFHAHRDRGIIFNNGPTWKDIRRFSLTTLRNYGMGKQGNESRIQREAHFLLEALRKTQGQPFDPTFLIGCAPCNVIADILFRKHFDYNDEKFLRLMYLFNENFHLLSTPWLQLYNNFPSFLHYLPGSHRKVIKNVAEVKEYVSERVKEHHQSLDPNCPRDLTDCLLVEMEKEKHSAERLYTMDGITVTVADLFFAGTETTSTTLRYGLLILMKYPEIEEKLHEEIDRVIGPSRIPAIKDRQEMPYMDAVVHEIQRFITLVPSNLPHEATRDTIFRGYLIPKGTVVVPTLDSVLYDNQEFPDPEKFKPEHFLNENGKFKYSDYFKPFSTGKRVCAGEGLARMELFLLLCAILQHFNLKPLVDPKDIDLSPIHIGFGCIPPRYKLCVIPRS

CYP1A2 [3] = biological target: T3, CYP1A2 (Homo sapiens, UniProt P05177); assay: Reversible inhibition (RI) of CYP1A2 activity in HLMs (cocktail probe assay)
T3 sequence (P05177 1-516): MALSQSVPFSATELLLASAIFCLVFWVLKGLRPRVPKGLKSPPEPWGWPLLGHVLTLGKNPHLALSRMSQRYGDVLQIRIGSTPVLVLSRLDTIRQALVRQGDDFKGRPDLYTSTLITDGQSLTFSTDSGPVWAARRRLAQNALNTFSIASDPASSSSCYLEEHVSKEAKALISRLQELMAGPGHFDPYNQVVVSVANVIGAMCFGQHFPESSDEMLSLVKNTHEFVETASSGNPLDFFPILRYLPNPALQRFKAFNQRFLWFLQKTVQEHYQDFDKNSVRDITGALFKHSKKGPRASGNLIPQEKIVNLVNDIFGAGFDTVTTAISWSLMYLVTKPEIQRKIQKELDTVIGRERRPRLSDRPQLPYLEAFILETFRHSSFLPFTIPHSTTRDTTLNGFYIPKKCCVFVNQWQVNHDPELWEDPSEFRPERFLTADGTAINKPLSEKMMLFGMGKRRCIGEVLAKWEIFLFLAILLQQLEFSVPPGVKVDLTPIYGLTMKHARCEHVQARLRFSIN

CYP3A4 [4] = biological target: T4, CYP3A4 (Homo sapiens, UniProt P08684); assay: Reversible inhibition (RI) of CYP3A4 activity in HLMs (cocktail probe assay); assay type: in vitro ADME; conditions: testosterone hydroxylation, 50 μM testosterone, 30 min incubation
T4 construct: pooled human liver microsomes from a mixed pool of 50 donors; tissue BD Gentest Co. 452156; host or cells: human liver microsomes, pool of 50 donors
T4 sequence (P08684 whole entry): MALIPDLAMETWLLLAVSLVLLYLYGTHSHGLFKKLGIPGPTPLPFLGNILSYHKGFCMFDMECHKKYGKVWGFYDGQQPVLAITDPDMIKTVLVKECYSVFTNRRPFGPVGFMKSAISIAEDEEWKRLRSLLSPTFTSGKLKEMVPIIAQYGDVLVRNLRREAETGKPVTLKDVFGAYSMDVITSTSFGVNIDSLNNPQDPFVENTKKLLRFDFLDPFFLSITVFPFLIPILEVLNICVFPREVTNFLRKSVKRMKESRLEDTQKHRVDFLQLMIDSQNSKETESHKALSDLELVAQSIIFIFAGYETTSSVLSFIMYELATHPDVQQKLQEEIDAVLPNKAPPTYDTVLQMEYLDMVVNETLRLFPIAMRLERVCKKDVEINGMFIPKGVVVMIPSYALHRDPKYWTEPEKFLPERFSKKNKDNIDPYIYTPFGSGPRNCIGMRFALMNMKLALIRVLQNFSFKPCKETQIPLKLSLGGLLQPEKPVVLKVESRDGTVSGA

CYP1A2 [5] = biological target: T3, CYP1A2; assay: Time-dependent inhibition (TDI) IC50 shift assay on CYP1A2 in HLMs; assay type: in vitro ADME; set-up: […]; tissue BD Gentest Co. 452156; conditions: 10 min incubation
CYP2B6 [6] = biological target: T5, CYP2B6 (Homo sapiens, UniProt P20813); assay: Enzyme kinetic assay (Dixon plot, Ki) for CYP2B6 in HLMs; assay type: in vitro ADME
T5 construct: pooled human liver microsomes from a mixed pool of 50 donors; tissue BD Gentest Co. 452156; host or cells: human liver microsomes, pool of 50 donors
T5 sequence (P20813 1-491): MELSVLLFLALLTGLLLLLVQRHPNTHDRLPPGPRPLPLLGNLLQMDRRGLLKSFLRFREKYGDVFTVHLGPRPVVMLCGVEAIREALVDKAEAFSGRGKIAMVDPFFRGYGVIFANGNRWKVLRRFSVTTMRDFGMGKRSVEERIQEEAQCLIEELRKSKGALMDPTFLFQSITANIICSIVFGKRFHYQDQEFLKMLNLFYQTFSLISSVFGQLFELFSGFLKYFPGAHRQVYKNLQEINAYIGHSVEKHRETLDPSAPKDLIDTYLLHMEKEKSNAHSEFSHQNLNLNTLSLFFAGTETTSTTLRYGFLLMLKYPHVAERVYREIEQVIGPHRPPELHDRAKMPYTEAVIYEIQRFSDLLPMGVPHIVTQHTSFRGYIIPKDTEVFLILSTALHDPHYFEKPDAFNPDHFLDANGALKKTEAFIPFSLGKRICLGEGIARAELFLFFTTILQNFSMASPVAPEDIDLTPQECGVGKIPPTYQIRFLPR
Experimental: (§1) Based on IC50 values, the Kis of sauchinone for CYP2B6, 2C19, 2E1, and 3A4 were determined. Different concentrations (20, 50, and 200 μM) of sauchinone were used. Other procedures were similar to those mentioned above regarding the reversible inhibitory effects of sauchinone. The inhibitory characteristics of sauchinone were initially estimated by nonlinear least squares regression analysis. Its Ki values were determined by Dixon plots.

CYP2C19 [7] = biological target: T1, CYP2C19; assay: Enzyme kinetic assay (Dixon plot, Ki) for CYP2C19 in HLMs; assay type: in vitro ADME
Experimental: as §1

CYP3A4 [8] = biological target: T4, CYP3A4; assay: Enzyme kinetic assay (Dixon plot, Ki) for CYP3A4 in HLMs; assay type: in vitro ADME
Experimental: as §1

CYP2B6 [9] = biological target: T5, CYP2B6; assay: Reversible inhibition (RI) of CYP2B6 activity in HLMs (cocktail probe assay); assay type: in vitro ADME; conditions: bupropion hydroxylation, 50 μM bupropion, 30 min incubation
CYP2A6 [10] = biological target: T6, CYP2A6 (Homo sapiens, UniProt P11509); assay: Reversible inhibition (RI) of CYP2A6 activity in HLMs (cocktail probe assay)
T6 sequence (P11509 1-494): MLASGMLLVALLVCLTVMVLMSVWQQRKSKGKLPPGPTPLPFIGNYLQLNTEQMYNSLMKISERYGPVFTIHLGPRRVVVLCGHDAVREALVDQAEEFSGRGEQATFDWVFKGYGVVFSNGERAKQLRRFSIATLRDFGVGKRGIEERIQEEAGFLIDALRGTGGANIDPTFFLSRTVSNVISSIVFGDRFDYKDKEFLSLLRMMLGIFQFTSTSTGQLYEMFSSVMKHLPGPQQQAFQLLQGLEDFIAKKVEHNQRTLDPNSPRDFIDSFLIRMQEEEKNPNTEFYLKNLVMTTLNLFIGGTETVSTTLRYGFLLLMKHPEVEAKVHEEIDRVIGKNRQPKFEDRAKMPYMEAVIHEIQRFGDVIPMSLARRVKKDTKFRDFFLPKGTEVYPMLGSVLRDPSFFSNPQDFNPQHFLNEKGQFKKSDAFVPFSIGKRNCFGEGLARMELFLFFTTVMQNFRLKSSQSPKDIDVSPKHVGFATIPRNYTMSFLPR

CYP2E1 [11] = biological target: T2, CYP2E1; assay: Reversible inhibition (RI) of CYP2E1 activity in HLMs (cocktail probe assay); assay type: in vitro ADME; conditions: chlorzoxazone hydroxylation, 50 μM chlorzoxazone, 30 min incubation
CYP3A4 [12] = biological target: T4, CYP3A4; assay: Time-dependent inhibition (TDI) IC50 shift assay on CYP3A4 in HLMs; assay type: in vitro ADME; conditions: for IC50: HLMs, 10 min incubation
CYP2D6 [13] = biological target: T7, CYP2D6 (Homo sapiens, UniProt P10635); assay: Time-dependent inhibition (TDI) IC50 shift assay on CYP2D6 in HLMs; assay type: in vitro ADME
T7 construct: pooled human liver microsomes from a mixed pool of 50 donors; tissue BD Gentest Co. 452156; host or cells: human liver microsomes, pool of 50 donors
T7 sequence (P10635 whole entry): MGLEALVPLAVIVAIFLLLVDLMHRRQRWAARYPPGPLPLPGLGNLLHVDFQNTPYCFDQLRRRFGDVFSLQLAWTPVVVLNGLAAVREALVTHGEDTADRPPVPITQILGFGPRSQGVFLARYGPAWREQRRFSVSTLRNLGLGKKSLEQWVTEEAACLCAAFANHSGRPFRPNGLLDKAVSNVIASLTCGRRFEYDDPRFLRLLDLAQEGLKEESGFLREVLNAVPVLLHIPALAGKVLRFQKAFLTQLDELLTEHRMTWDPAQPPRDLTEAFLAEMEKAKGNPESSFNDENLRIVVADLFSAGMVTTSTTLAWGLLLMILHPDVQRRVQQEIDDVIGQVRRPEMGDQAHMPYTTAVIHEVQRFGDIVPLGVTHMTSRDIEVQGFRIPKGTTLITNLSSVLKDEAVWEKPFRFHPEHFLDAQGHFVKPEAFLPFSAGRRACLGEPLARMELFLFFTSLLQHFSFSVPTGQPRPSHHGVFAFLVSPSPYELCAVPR

CYP2E1 [14] = biological target: T2, CYP2E1; assay: Enzyme kinetic assay (Dixon plot, Ki) for CYP2E1 in HLMs; assay type: in vitro ADME
Experimental: as §1

CYP2C19 [15] = biological target: T1, CYP2C19; assay: Time-dependent inhibition (TDI) IC50 shift assay on CYP2C19 in HLMs; assay type: in vitro ADME; conditions: for IC50: HLMs, 10 min incubation
CYP2D6 [16] = biological target: T7, CYP2D6; assay: Reversible inhibition (RI) of CYP2D6 activity in HLMs (cocktail probe assay); assay type: in vitro ADME; conditions: 5 μM dextromethorphan, 30 min incubation
CYP2C9 [17] = biological target: T8, CYP2C9 (Homo sapiens, UniProt P11712); assay: Time-dependent inhibition (TDI) IC50 shift assay on CYP2C9 in HLMs; assay type: in vitro ADME; conditions: 10 min incubation
T8 construct: pooled human liver microsomes from a mixed pool of 50 donors; tissue BD Gentest Co. 452156; host or cells: human liver microsomes, pool of 50 donors
T8 sequence (P11712 whole entry): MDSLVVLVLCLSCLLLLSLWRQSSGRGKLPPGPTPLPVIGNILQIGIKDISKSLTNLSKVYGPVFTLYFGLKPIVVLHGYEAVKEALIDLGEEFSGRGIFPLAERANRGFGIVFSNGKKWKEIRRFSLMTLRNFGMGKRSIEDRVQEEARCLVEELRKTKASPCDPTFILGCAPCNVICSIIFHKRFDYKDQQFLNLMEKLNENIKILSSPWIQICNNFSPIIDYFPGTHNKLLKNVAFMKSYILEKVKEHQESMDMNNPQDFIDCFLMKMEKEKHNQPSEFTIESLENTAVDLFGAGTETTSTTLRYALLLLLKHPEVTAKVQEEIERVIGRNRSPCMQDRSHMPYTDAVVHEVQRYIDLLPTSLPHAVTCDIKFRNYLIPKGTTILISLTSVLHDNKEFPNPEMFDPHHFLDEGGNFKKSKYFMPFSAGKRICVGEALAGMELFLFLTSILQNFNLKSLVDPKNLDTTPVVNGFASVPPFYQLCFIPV

CYP2C9 [18] = biological target: T8, CYP2C9; assay: Reversible inhibition (RI) of CYP2C9 activity in HLMs (cocktail probe assay); assay type: in vitro ADME; conditions: 100 μM tolbutamide, 30 min incubation
CYP2B6 [19] = biological target: T5, CYP2B6; assay: Time-dependent inhibition (TDI) IC50 shift assay on CYP2B6 in HLMs; assay type: in vitro ADME; conditions: for IC50: HLMs, 10 min incubation
CYP2A6 [20] = biological target: T6, CYP2A6; assay: Time-dependent inhibition (TDI) IC50 shift assay on CYP2A6 in HLMs; assay type: in vitro ADME; set-up: pooled human liver microsomes from a mixed pool of 50 donors; tissue BD Gentest Co. 452156; host or cells: human liver microsomes, pool of 50 donors; conditions: 10 min incubation

C[C@@H]1[C@H]2c3cc4c(cc3O[C@@]35OCOC3=CC(=O)[C@H](C[C@H]1C)[C@@H]25)OCO4 [Sauchinone]
IC50 (CYP2C19 [1]): 3.6 ± 2.54 µM
IC50 (CYP2E1 [2]; 0 min pre-incubation with NADPH, read-out: IC50 on CYP2E1, 0 min inactivation incubation (TDI)): 105 ± 57 µM
IC50 (CYP2E1 [2]; IC50 on CYP2E1, 30 min inactivation incubation (TDI), 30 min pre-incubation with NADPH): 5.04 ± 1.91 µM
IC50 shift at 10 min (CYP2E1 [2]; human, human liver microsomes, pH 7.4, probe chlorzoxazone (substrate cocktail set)): 20.9
IC50 (CYP1A2 [3]): > 300 µM
IC50 (CYP3A4 [4]): 0.207 ± 0.193 µM
IC50 (CYP1A2 [5]; 0 min pre-incubation with NADPH, read-out: IC50 on CYP1A2, 0 min inactivation incubation (TDI)): > 300 µM
IC50 (CYP1A2 [5]; IC50 on CYP1A2, 30 min inactivation incubation (TDI), 30 min pre-incubation with NADPH): > 300 µM
Ki (CYP2B6 [6]; sauchinone 20, 50, 200 μM, read-out: Apparent inhibition constant (Ki) for CYP2B6): 14.3 µM
Type of reversible inhibition of CYP2B6 (Dixon plot model) (CYP2B6 [6]; visual inspection): noncompetitive
Ki (CYP2C19 [7]; sauchinone 20, 50, 200 μM, read-out: Apparent inhibition constant (Ki) for CYP2C19): 16.8 µM
Type of reversible inhibition of CYP2C19 (Dixon plot model) (CYP2C19 [7]; visual inspection): noncompetitive
Ki (CYP3A4 [8]; sauchinone 20, 50, 200 μM, read-out: Apparent inhibition constant (Ki) for CYP3A4): 6.84 µM
Type of reversible inhibition of CYP3A4 (Dixon plot model) (CYP3A4 [8]; visual inspection): noncompetitive
IC50 (CYP2B6 [9]): 0.458 ± 0.0932 µM
IC50 (CYP2A6 [10]): > 300 µM
IC50 (CYP2E1 [11]): 35.4 µM and 35.8 µM
IC50 (CYP3A4 [12]; 0 min pre-incubation with NADPH, read-out: IC50 on CYP3A4, 0 min inactivation incubation (TDI)): 24.5 ± 51.3 µM
IC50 (CYP3A4 [12]; IC50 on CYP3A4, 30 min inactivation incubation (TDI), 30 min pre-incubation with NADPH): 1.14 ± 2.29 µM
IC50 shift at 10 min (CYP3A4 [12]; human, human liver microsomes, pH 7.4, probe testosterone (substrate cocktail set)): 21.4
IC50 (CYP2D6 [13]; 0 min pre-incubation with NADPH, 10 min incubation, read-out: IC50 on CYP2D6, 0 min inactivation incubation (TDI)): > 300 µM
IC50 (CYP2D6 [13]; read-out: IC50 on CYP2D6, 30 min inactivation incubation (TDI), 30 min pre-incubation with NADPH, 10 min incubation): > 300 µM
Ki (CYP2E1 [14]; sauchinone 20, 50, 200 μM, read-out: Apparent inhibition constant (Ki) for CYP2E1): 41.7 µM
Type of reversible inhibition of CYP2E1 (Dixon plot model) (CYP2E1 [14]; visual inspection): noncompetitive
IC50 (CYP2C19 [15]; 0 min pre-incubation with NADPH, read-out: IC50 on CYP2C19, 0 min inactivation incubation (TDI)): 28.5 ± 0.267 µM
IC50 (CYP2C19 [15]; IC50 on CYP2C19, 30 min inactivation incubation (TDI), 30 min pre-incubation with NADPH): 19.4 ± 2.92 µM
IC50 shift (CYP2C19 [15]; human, human liver microsomes, pH 7.4): 1.47
IC50 (CYP2D6 [16]): > 300 µM
IC50 (CYP2C9 [17]; 0 min pre-incubation with NADPH, read-out: IC50 on CYP2C9, 0 min inactivation incubation (TDI)): > 300 µM
IC50 (CYP2C9 [17]; IC50 on CYP2C9, 30 min inactivation incubation (TDI), 30 min pre-incubation with NADPH): > 300 µM
IC50 (CYP2C9 [18]): > 300 µM
IC50 (CYP2B6 [19]; 0 min pre-incubation with NADPH, read-out: IC50 on CYP2B6, 0 min inactivation incubation (TDI)): 36.4 ± 27 µM
IC50 (CYP2B6 [19]; IC50 on CYP2B6, 30 min inactivation incubation (TDI), 30 min pre-incubation with NADPH): 3.93 ± 5.72 µM
IC50 shift at 10 min (CYP2B6 [19]; human, human liver microsomes, pH 7.4, probe bupropion (substrate cocktail set)): 9.28
IC50 (CYP2A6 [20]; 0 min pre-incubation with NADPH, read-out: IC50 on CYP2A6, 0 min inactivation incubation (TDI)): > 300 µM
IC50 (CYP2A6 [20]; IC50 on CYP2A6, 30 min inactivation incubation (TDI), 30 min pre-incubation with NADPH): > 300 µM

N[C@@H]1C[C@H]1c1ccccc1 (racemic) [tranylcypromine, reference compound]
IC50 (CYP2A6 [10]; read-out: IC50 on CYP2A6 activity (RI), HLMs, reversible inhibition, 5 μM coumarin, 30 min incubation, inhibitor 0–300 μM): 1.99 µM
